Experiments:
[1] = test system: EMT markers in MDA-MB-231 cells; assay: Protein expression of EMT markers, western blot; format: cell-based, human; conditions: MDA-MB-231, western blot, FIGS. 7E and 7F
Protocol: The triple-negative breast cancer cell line MDA-MB-231 was spread at a concentration of 2×10^6 cells/well on a DMEM medium containing 10% FBS in a 6-well plate, cultured at 37° C. for 24 hours under a 5% CO2 condition, and then washed twice with phosphate-buffered saline (PBS). Attached cells were recovered and washed twice with PBS, and then boiling 2× sample loading buffer (250 mM Tris-HCl (pH 6.8), 4% SDS, 10% glycerol, 0.006% bromophenol blue, 2% β-mercaptoethanol, 50 mM sodium fluoride, and 5 mM sodium orthovanadate) was added thereto to disrupt the cells and the cells were left at 100° C. for 10 minutes. After cooling, the cells were stored at […] and […] at 37° C. immediately before use in protein quantification and electrophoresis. 10 μg of proteins were electrophoresed at 100 V for 2 hours using a 12% SDS-polyacrylamide gel (#456-1036, Bio-Rad, Hercules, Calif.). The separated proteins were transferred to a PVDF membrane (ISEQ15150, Millipore, Bedford, Mass.) at 100 V for 1 hour, and a blocking buffer (5% non-fat dry milk in TBS containing 0.1% Tween-20 (TBST)) was injected thereinto to culture the proteins at room temperature for 1 hour. After washing three times with TBST for 5 minutes, the corresponding single antibody was diluted with 5% non-fat dry milk in TBST and allowed to react with the membrane at 4° C. for 18 hours. The membrane [ISEQ 1S150, Millipore, Bedford, Mass.] was washed three times with TBST for 10 minutes, and then horseradish peroxidase (HRP)-conjugated secondary antibodies were diluted with 2.5% non-fat dry milk in TBST at a ratio of 1:2,000 and allowed to react with the membrane at room temperature for 2 hours. After washing three times with TBST for 10 minutes, the reaction product was treated with a chemiluminescent reagent (LabFrontier, Suwon, Korea) to confirm the protein expression levels of E-cadherin, N-cadherin, vimentin, and beta-actin (Fuji Film Corp., Japan) using LAS-4000 (Fuji Film Corp., Japan), and the results thereof are illustrated in FIG. 7E. The proteins were quantified using ImageJ software, which are illustrated in FIG. 7F.

DOT1L = biological target: T1, DOT1L (Homo sapiens, UniProt Q8TEK3); assay: Target selectivity for H3K79 residue in MDA-MB-231 cell line, western blot; format: cell-based
T1 construct: based on the finding that DOT1L was overexpressed in the breast cancer cell line; endogenous in cells
Protocol: Compound 2 (X=ph) was selected from among selenopsammaplin A and the derivatives thereof, and in order to confirm the selectivity thereof for the H3K79 residue, which is an intracellular DOT1L target, an experiment was performed as follows. The triple-negative breast cancer cell line MDA-MB-231 was spread at a concentration of 2×10^6 cells/well on a DMEM medium containing 10% FBS in a 6-well plate, cultured at 37° C. for 24 hours under a 5% CO2 condition, and then washed twice with phosphate-buffered saline (PBS). Attached cells were recovered and washed twice with PBS, and then boiling 2× sample loading buffer (250 mM Tris-HCl (pH 6.8), 4% SDS, 10% glycerol, 0.006% bromophenol blue, 2% β-mercaptoethanol, 50 mM sodium fluoride, and 5 mM sodium orthovanadate) was added thereto to disrupt the cells and the cells were left at 100° C. for 10 minutes. After cooling, the cells were stored at […] and […] at 37° C. immediately before use in protein quantification and electrophoresis. 10 μg of proteins were electrophoresed at 100 V for 2 hours using a 12% SDS-polyacrylamide gel (#456-1036, Bio-Rad, Hercules, Calif.). […] These were quantified using ImageJ software and the results thereof are illustrated in FIG. 4B.

breast cancer metastasis = assay: Breast cancer metastasis to organs in animal model, IVIS; format: in vivo, nude BALB/c mice; conditions: 5 mg/kg, 15 mg/kg
Text: Organs such as the lungs, liver, spleen, and kidneys were extracted from the animal model of Example 8, and the degrees of cancer metastasis in the control and the administered groups were indirectly photographed using IVIS (PerkinElmer) and are illustrated in FIG. 9.

T1 sequence (Q8TEK3 whole entry): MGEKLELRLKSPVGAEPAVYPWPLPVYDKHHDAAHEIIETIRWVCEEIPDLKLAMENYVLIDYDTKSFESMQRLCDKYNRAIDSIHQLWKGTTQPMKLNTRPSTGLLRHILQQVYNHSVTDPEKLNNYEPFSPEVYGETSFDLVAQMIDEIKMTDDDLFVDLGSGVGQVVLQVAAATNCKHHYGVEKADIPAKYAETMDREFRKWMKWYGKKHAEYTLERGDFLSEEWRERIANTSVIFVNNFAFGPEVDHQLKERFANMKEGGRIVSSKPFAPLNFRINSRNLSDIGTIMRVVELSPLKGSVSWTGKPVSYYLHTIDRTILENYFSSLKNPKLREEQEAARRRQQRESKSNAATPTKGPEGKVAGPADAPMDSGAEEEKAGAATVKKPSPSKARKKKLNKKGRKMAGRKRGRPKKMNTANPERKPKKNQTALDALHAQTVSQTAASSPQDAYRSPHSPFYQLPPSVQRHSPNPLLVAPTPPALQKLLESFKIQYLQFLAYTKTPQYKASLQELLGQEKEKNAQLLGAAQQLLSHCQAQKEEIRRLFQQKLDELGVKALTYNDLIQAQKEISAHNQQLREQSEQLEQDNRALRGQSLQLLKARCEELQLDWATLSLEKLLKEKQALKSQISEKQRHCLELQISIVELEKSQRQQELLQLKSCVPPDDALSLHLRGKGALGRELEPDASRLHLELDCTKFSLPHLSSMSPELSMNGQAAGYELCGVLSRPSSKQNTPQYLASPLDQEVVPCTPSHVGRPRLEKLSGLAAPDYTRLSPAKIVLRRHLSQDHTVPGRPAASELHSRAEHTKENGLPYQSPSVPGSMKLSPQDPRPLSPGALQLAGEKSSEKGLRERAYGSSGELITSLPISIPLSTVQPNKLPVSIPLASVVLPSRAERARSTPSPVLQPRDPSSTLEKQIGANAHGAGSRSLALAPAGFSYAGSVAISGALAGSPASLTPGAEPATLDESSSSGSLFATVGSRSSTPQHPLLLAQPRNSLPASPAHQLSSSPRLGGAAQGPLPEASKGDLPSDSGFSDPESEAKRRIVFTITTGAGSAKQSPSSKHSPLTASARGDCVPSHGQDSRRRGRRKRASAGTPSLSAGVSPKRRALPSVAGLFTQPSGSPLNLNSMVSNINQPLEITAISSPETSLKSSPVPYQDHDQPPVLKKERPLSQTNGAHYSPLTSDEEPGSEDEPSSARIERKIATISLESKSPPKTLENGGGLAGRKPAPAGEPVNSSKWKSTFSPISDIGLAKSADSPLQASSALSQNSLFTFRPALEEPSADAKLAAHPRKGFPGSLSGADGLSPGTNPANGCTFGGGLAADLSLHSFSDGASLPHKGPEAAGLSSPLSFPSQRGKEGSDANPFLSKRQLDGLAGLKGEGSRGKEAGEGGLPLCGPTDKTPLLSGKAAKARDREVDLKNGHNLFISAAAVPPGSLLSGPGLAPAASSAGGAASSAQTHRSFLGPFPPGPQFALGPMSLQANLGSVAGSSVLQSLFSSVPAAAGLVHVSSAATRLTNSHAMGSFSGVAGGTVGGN

O=C(NCC[Se][Se]CCNC(=O)/C(Cc1ccccc1)=N/O)/C(Cc1ccccc1)=N/O [Compound 2, (2E,2′E)-N,N′-(diselenediylbis(ethane-2,1-diyl))bis(2-(hydroxyimino)-3-phenylpropanamide)]
protein expression of E-cadherin [1]: increased | protein expression of N-cadherin [1]: suppressed | protein expression of ZEB1 [1]: suppressed | protein expression of vimentin [1]: suppressed | methylation of other histone 3 residues (DOT1L; MDA-MB-231, H3K4me2, H3K27me2, H3K36me2 western blot, FIG. 4): without changing | methylation of H3K79 (residue 79) (DOT1L; MDA-MB-231, H3K79me2 western blot, FIG. 4, compared to psammaplin A): specifically suppressed | degree of metastasis to each organ (lungs, liver, spleen, kidneys) (breast cancer metastasis): significantly reduced | degree of metastasis to the lungs (breast cancer metastasis): greatly reduced

From US11903912B2, “Composition for preventing and treating breast cancer including selenopsammaplin A as active ingredients” (Seoul National University R & DB Foundation, priority 2019, dated 2024)
